Where “and” joins values, the source holds several entries; their conditions need not be identical. Equal values may be shown once.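 Each compound was tested at five concentrations against cells in 96-well plates for 48 hours. Abbreviation: GI50, concentration required for 50% inhibition of growth. The concentration for full growth arrest is given as TGI.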
How the values were obtained:
Experiment in all cases: NCI-60 cell line screen, 48 h
[1] = tested on: NCI-H460 lung
[2] = tested on: OVCAR-5 ovarian
[3] = tested on: MALME-3M melanoma
[4] = tested on: OVCAR-4 ovarian
[5] = tested on: RPMI-8226 leukemia
[6] = tested on: UACC-257 melanoma
[7] = tested on: 786-0 renal
[8] = tested on: UACC-62 melanoma
[9] = tested on: MCF7 breast
[10] = tested on: OVCAR-8 ovarian

SMILES | TGI [1] | TGI [2] | TGI [3] | TGI [4] | TGI [5] | TGI [6] | TGI [7] | TGI [8] | GI50 [1] | GI50 [2] | GI50 [9] | TGI [9] | GI50 [4] | GI50 [5] | GI50 [6] | GI50 [10] | TGI [10] | GI50 [7] | GI50 [8] | GI50 [3]
Cc1ccc(-c2c(N)nc(NC#N)nc2CCC(=O)Nc2ccccc2[N+](=O)[O-])cc1 | > 100 µM | > 100 µM | > 100 µM | > 100 µM | > 100 µM | > 100 µM | > 100 µM | > 100 µM |  |  |  |  |  |  |  |  |  |  |  | 
CC(C)(C)OC(=O)n1cc(CNC(=S)Nc2ccccc2)c2ccccc21 | 22 µM | 37.6 µM |  | > 100 µM | 16.4 µM | 30.5 µM | 34.5 µM | 26.1 µM | 9.36 µM | 16.3 µM | 9.02 µM | 48 µM | 49.4 µM | 3.27 µM | 10.9 µM | 16.9 µM | 35.4 µM | 17.7 µM | 13.3 µM | 
COc1c(C2CC(=O)Nc3c2cnn3Cc2ccco2)cc2c(c1OC)OCO2 (stereo unspecified) | > 100 µM | > 100 µM | > 100 µM | > 100 µM | > 56.5 µM |  | > 100 µM | > 100 µM | 0.401 µM | 4.7 µM | 0.367 µM | > 100 µM |  | 0.396 µM |  | 0.924 µM | > 100 µM | 0.917 µM |  | 0.441 µM
O=C1NC2(CCCC2)C(=O)C12CCCC2 | > 100 µM | > 100 µM | > 100 µM | > 100 µM | > 100 µM | > 100 µM | > 100 µM | > 100 µM |  |  |  |  |  |  |  |  | > 100 µM |  |  | 
O=C(c1cccs1)c1c(C(F)(F)F)n([O-])c2ccccc2[n+]1=O | 0.597 µM | 2.49 µM | 2.53 µM | 3.09 µM | 10.5 µM |  | 1.45 µM | 1.6 µM | 0.234 µM | 1.04 µM | 0.549 µM | 1.95 µM | 0.941 µM | 0.613 µM |  | 0.601 µM | 1.94 µM | 0.521 µM | 0.743 µM | 0.85 µM
C=CC1=CSNN1 | > 100 µM | > 100 µM | > 100 µM | > 100 µM | > 100 µM | > 100 µM | > 100 µM | > 100 µM |  |  |  |  |  |  |  |  | > 100 µM |  |  | 
C1COCCN1.C1COCCN1.N.N.[Cl-].[Pt+2] | > 100 µM | > 100 µM | > 100 µM | > 100 µM |  |  | > 100 µM | > 100 µM | > 100 µM | > 100 µM |  |  | > 100 µM |  |  | > 100 µM | > 100 µM | > 100 µM | > 100 µM | > 100 µM
CCOC(=O)C1=C(C)Nc2ccccc2S1 | > 100 µM | > 100 µM | > 100 µM | > 100 µM | > 100 µM | > 100 µM | > 100 µM | > 100 µM |  |  |  |  |  |  |  |  |  |  |  | 
CSc1nc(SC)c2c(CN=[N+]=[N-])c(Br)n(Cc3ccccc3)c2n1 | > 100 µM | > 100 µM | > 100 µM | > 100 µM | > 100 µM |  | > 100 µM | > 100 µM |  |  |  | > 100 µM |  |  |  |  | > 100 µM |  |  | 
CSC1=NC=CCN1C | > 100 µM | > 100 µM | > 100 µM | > 100 µM | > 100 µM | > 100 µM | > 100 µM | > 100 µM |  |  |  |  |  |  |  |  | > 100 µM |  |  | 
COC(=O)C1OC(O[C@H]2CCC3(C)C(CCC4(C)C3CC=C3C5CC(C)(C)CCC5(C(=O)O)CC[C@]34C)C2(C)C)C(O)C(OC2OC(CO)C(O)C(O)C2O)C1O (stereo partly specified) | > 33.3 µM | 13.5 µM |  |  |  | 16.1 µM | 11.6 µM | 11.7 µM | 11.5 µM | 7.31 µM | 9.92 µM | 26.4 µM |  |  | 6.89 µM | 9.96 µM | 27.6 µM | 6.36 µM | 6.23 µM | 
CC(=O)OC1=C2CC3(C)OC(=O)CC(C)(C)C3=CC=C2C=C(C(C)C)C1=O (stereo unspecified) | 3.31 µM | 2.24 µM | 1.17 µM | 0.915 µM | 0.56 µM | 1.1 µM | 0.388 µM | 0.725 µM |  |  |  |  |  |  |  |  | 0.779 µM |  |  | 
C=CCSC[C@H](NC(=O)COc1ccccc1)C(=O)NC(C(=O)OCc1ccc([N+](=O)[O-])cc1)=C(C)C | > 100 µM |  | > 100 µM | > 100 µM | > 100 µM | > 100 µM | > 100 µM | > 100 µM |  |  |  |  |  |  |  |  | > 100 µM |  |  | 
O=c1cc(-c2cccc(F)c2)[nH]c2cc3c(cc12)OCO3 | 4.31 µM and 22.7 µM | > 100 µM | > 72 µM | > 68.1 µM |  | > 100 µM | 75 µM and 17.7 µM | > 64.9 µM | 0.257 µM |  |  | > 100 µM |  |  |  | 0.286 µM | 5.02 µM and 1.55 µM | 0.346 µM |  | 
Cn1cc(NC(=O)c2cc(NC(=O)CCCCCCCCCCC(=O)Nc3cc(C(=O)Nc4cc(C(=O)NCCC(=N)N)n(C)c4)n(C)c3)cn2C)cc1C(=O)NCCC(=N)N | > 100 µM | > 100 µM |  | > 100 µM |  | > 100 µM | > 100 µM | > 100 µM |  |  |  |  |  |  |  |  | 53.5 µM |  |  | 
O=c1[nH]c2ccccc2cc1C(Cl)=C(Cl)Cl | > 100 µM | > 100 µM | > 100 µM | > 100 µM | > 100 µM | > 100 µM | > 100 µM | > 100 µM |  |  |  |  |  |  |  |  | > 100 µM |  |  | 
CCc1c2c(nc3cc4c(cc13)OCO4)-c1cc3c(c(=O)n1C2)COC(=O)[C@]3(O)CC | 1.09 µM and 0.617 µM | 2.27 µM | > 100 µM | > 100 µM | 0.391 µM | 2.04 µM and 2.71 µM | > 100 µM | 0.195 µM and 0.409 µM | < 0.001 µM | 0.885 µM and 0.313 µM | < 0.001 µM |  | 0.323 µM and 1.27 µM | 0.00315 µM | 0.135 µM and 0.194 µM |  |  |  | < 0.001 µM | 0.289 µM
N#CC1(c2nc3ccccc3o2)C(=O)C(=O)N(C2C3CC4CC(C3)CC2C4)C(=O)C1=O (stereo unspecified) | > 100 µM | > 100 µM | > 100 µM | > 100 µM | > 100 µM | > 100 µM | > 100 µM | > 100 µM |  |  |  |  |  |  |  |  | > 100 µM |  |  | 
C#CCNC(=O)NC(CCCNC(=O)OCc1ccccc1)C(=O)OCc1ccccc1 (stereo unspecified) | > 100 µM | > 100 µM | > 100 µM | > 100 µM | > 100 µM | 93.3 µM | > 100 µM | > 100 µM |  |  |  |  |  |  |  |  | > 100 µM |  |  | 

— PubChem BioAssay (NCI)
